From ChEMBL document CHEMBL5325419, “Design, synthesis and biological evaluation of novel thiosemicarbazones as cruzipain inhibitors” (Eur J Med Chem, 2023) come the findings set out here.

SMILES strings stand for the structures. pIC50: −log10 of the molar value. Several values for one entry are separate records, joined by “and”; a condition that tells them apart may be missing. Identical values can stand only once. Activity calls are given as the source filed them. No cut-off for these calls is given here.

In general, pIC50 refers to −log10 of the IC50, conventionally taken in molar units.

The target in experiment [1] is Cruzipain (Trypanosoma cruzi) (UniProt P25779). Put plainly: Reversible inhibition of recombinant Trypanosoma cruzi Cruzipain using Z-LR-AMC as substrate at 25 uM preincubated for 60 mins followed by substrate addition and measured for 45 to 60 mins by fluorescence analysis. As to conditions: time 105-120 min.
Experiment [2] shares this target. Put plainly: Time dependent inhibition of recombinant Trypanosoma cruzi Cruzipain using Z-FR-AMC as substrate at 125 nM preincubated for 60 mins followed by substrate addition and measured for 45 to 60 mins by fluorescence analysis. As to conditions: time 105-120 min, TDE = time-dependent effect.
Experiment [3] has the same target. Put plainly: Time dependent inhibition of recombinant Trypanosoma cruzi Cruzipain using Z-FR-AMC as substrate at 1000 nM preincubated for 60 mins followed by substrate addition and measured for 45 to 60 mins by fluorescence analysis. The note with it: time 105-120 min, TDE = time-dependent effect.
The target is the same in experiment [4]. Put plainly: Inhibition of recombinant Trypanosoma cruzi Cruzipain using Z-FR-AMC as substrate at 125 to 1000 nM by fluorescence analysis. The note with it: dose 125-1000 nM.
Experiment [5] addresses T1, Cruzipain (Trypanosoma cruzi, UniProt P25779). Put plainly: Inhibition of recombinant Trypanosoma cruzi Cruzipain using Z-FR-AMC as substrate preincubated for 20 mins followed by substrate addition and measured for 45 mins by fluorescence analysis. As to conditions: for pIC50: read-out: IC50.
In experiment [6] the target is Cruzipain (Trypanosoma cruzi) (UniProt P25779). Put plainly: Reversible inhibition of recombinant Trypanosoma cruzi Cruzipain using Z-LR-AMC as substrate at 1 uM preincubated for 60 mins followed by substrate addition and measured for 45 to 60 mins by fluorescence analysis. The note with it: time 105-120 min.
Experiment [7] has the same target. Put plainly: Reversible inhibition of recombinant Trypanosoma cruzi Cruzipain using Z-LR-AMC as substrate at 10 uM preincubated for 60 mins followed by substrate addition and measured for 45 to 60 mins by fluorescence analysis. As to conditions: time 105-120 min.
The target of experiment [8] is T1, Cruzipain. Put plainly: Inhibition of recombinant Trypanosoma cruzi Cruzipain using Z-Phe-Arg-AMC as substrate preincubated for 5 mins followed by substrate addition by spectrofluorometry analysis.

T1 sequence (P25779 whole entry): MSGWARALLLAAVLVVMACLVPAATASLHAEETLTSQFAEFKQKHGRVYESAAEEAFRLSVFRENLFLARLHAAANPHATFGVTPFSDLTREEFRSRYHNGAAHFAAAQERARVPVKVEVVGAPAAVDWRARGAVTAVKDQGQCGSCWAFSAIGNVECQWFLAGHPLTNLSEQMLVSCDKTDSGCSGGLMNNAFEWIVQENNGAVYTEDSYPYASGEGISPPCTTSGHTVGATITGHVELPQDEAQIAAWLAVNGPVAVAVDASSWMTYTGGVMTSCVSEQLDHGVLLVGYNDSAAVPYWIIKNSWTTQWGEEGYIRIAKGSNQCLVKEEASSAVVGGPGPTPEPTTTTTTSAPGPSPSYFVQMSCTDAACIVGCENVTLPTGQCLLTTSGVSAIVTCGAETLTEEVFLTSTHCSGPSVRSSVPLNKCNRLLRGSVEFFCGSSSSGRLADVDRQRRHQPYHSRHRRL
Sequence of Cruzipain (Trypanosoma cruzi) (P25779 123-467 limits assumed): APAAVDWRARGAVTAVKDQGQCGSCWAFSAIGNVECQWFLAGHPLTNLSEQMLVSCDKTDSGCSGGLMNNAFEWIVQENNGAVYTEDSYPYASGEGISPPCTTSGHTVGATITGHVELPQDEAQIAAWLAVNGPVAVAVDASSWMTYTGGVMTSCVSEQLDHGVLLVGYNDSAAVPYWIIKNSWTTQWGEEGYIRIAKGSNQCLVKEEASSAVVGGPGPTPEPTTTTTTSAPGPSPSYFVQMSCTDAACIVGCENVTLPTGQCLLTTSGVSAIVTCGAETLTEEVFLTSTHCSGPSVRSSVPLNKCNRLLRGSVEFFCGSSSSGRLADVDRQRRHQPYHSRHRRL

As to `NC(=S)N/N=C(\CCn1ccnc1)c1ccc(Cl)c(Cl)c1`, in experiment [1], the inhibition result is “Active”. Besides, the values for the inhibition result in experiment [2], in experiment [3] and in experiment [4] were “Tde”, “Tde” and “Dose-Dependent Effect”, respectively.

For the molecule `N/C(S)=N/N=C/c1cccc(Br)c1`, at Cruzipain [5] (read-out: pIC50 (converted)), the IC50 was 1360 nM.

On to `NC(=S)N/N=C(\CCN1CCOCC1)c1ccc(Cl)c(Cl)c1`, for which the pIC50 at Cruzipain [5] is 8.48 and 8.07. For the same molecule, the inhibition entry in experiment [6] is “Active”. In addition, the values for the inhibition result in experiment [2], in experiment [3] and in experiment [4] were “Tde”, “Tde” and “Dose-Dependent Effect”, respectively.

For `NC(=S)N/N=C(\CCN1CCCCC1)c1ccc(Cl)c(Cl)c1`, the pIC50 at Cruzipain [5] is 8.54 and 8.07. For the same molecule, the inhibition result in experiment [7] was “Active”. Also, the inhibition entry in experiment [2] is “Tde”; in experiment [3], “Tde”; in experiment [4] it was “Dose-Dependent Effect”.

For `C/C(=N\N=C(\N)S)c1cccc(Br)c1`, on Cruzipain [8], the pIC50 is 6.96.

Regarding `CC/C(=N\N=C(\N)S)c1ccc(Cl)c(Cl)c1`, the pIC50 at Cruzipain [8] is 7.61.
